Test results reported in paper PMC8703412 (Pharmaceuticals, 2021).
In brackets after ≈: the same amount, converted by molar mass. Read-outs that look alike come from different tables or passages of the source.

Experiments:
[1] = tested on: Mycobacterium kansasii 6509/96 (clinical isolate); experiment: MIC micromethod in Šula's medium, M. kansasii; assay type: cell-based; settings: Mycobacterium kansasii
[2] = tested on: Mycobacterium tuberculosis strain 331/88 (i.e., H37Rv); experiment: MIC micromethod in Šula's medium, drug-susceptible Mtb.; assay type: cell-based
[3] = tested on: Mycobacterium avium 330/88; experiment: MIC micromethod in Šula's medium, M. avium; assay type: cell-based
[4] = Cytotoxicity, CellTiter 96 (MTS) assay; settings: human, Cytotoxicity for HepG2 cells, IC50, 24 h incubation, 1–1000 µM
[5] = 168 h, 7 d incubation, precursors, Table 2, read-out: MIC M. kansasii 6509/96 7 d
[6] = 336 h, 14 d incubation, precursors, Table 2, read-out: MIC M. kansasii 6509/96 14 d
[7] = 504 h, 21 d incubation, precursors, Table 2, read-out: MIC M. kansasii 6509/96 21 d
[8] = Mycobacterium tuberculosis, H37RV, 336 h, 14 d incubation, precursors, Table 2, read-out: MIC Mtb. 331/88 14 d
[9] = Mycobacterium tuberculosis, H37RV, 504 h, 21 d incubation, precursors, Table 2, read-out: MIC Mtb. 331/88 21 d
[10] = Mycobacterium avium, 330/88, 336 h, 14 d incubation, precursors, Table 2, read-out: MIC M. avium 330/88 14 d
[11] = Mycobacterium avium, 330/88, 504 h, 21 d incubation, precursors, Table 2, read-out: MIC M. avium 330/88 21 d
[12] = 168 h, read-out: MIC M. kansasii 6509/96 7 d
[13] = 168 h, 7 d incubation, Table 1, read-out: MIC M. kansasii 6509/96 7 d
[14] = 336 h, 14 d incubation, Table 1, read-out: MIC M. kansasii 6509/96 14 d
[15] = 504 h, 21 d incubation, Table 1, read-out: MIC M. kansasii 6509/96 21 d
[16] = Mycobacterium tuberculosis, H37RV, 336 h, 14 d incubation, esters, Table 1, read-out: MIC Mtb. 331/88 14 d
[17] = Mycobacterium tuberculosis, H37RV, 504 h, 21 d incubation, esters, Table 1, read-out: MIC Mtb. 331/88 21 d
[18] = Mycobacterium avium, 330/88, 336 h, 14 d incubation, Table 1, read-out: MIC M. avium 330/88 14 d
[19] = Mycobacterium avium, 330/88, 504 h, 21 d incubation, Table 1, read-out: MIC M. avium 330/88 21 d
[20] = 504 h, text summary over 7, 14 and 21 d, read-out: MIC for M. kansasii 6509/96
[21] = 336 h, read-out: MIC M. kansasii 6509/96 14 d
[22] = 504 h, read-out: MIC M. kansasii 6509/96 21 d
[23] = Mycobacterium avium, 330/88, 336 h, read-out: MIC M. avium 330/88 14 d
[24] = Mycobacterium avium, 330/88, 504 h, read-out: MIC M. avium 330/88 21 d

Compound	MIC [2, 8] [µM]	MIC [2, 9] [µM]	IC50 at 24 h [4] [µM]	MIC [1, 13] [µM]	MIC [1, 14] [µM]	MIC [1, 15] [µM]	MIC [2, 16] [µM]	MIC [2, 17] [µM]	MIC [3, 18] [µM]	MIC [3, 19] [µM]	melting point [°C]	other results
Oc1cccc2ccccc12 [1-naphthol, reference compound]	250 (≈ 36 µg/mL)	500 (≈ 72.1 µg/mL)	–	–	–	–	–	–	–	–	–	MIC [1, 5]: 125 µM (≈ 18 µg/mL); MIC [1, 6]: 250 µM (≈ 36 µg/mL); MIC [1, 7]: 500 µM (≈ 72.1 µg/mL); MIC [3, 10]: 500 µM (≈ 72.1 µg/mL); MIC [3, 11]: 500 µM (≈ 72.1 µg/mL)
Oc1ccc2ccccc2c1 [2-naphthol, reference compound]	500 (≈ 72.1 µg/mL)	500 (≈ 72.1 µg/mL)	–	–	–	–	–	–	–	–	–	MIC [1, 12]: 250 µM (≈ 36 µg/mL); MIC [1, 6]: 500 µM (≈ 72.1 µg/mL); MIC [1, 7]: 500 µM (≈ 72.1 µg/mL); MIC [3, 10]: 1000 µM (≈ 144 µg/mL); MIC [3, 11]: 1000 µM (≈ 144 µg/mL)
COC(=O)/C(C)=N/NC(=O)c1ccncc1 [3a, Methyl (E)-2-(2-isonicotinoylhydrazineylidene)propanoate]	–	–	> 1000	2 (≈ 0.442 µg/mL)	4 (≈ 0.885 µg/mL)	8 (≈ 1.77 µg/mL)	0.25 (≈ 0.0553 µg/mL)	0.25 (≈ 0.0553 µg/mL)	500 (≈ 111 µg/mL)	1000 (≈ 221 µg/mL)	122 to 124.8	–
C/C(=N\NC(=O)c1ccncc1)C(=O)Oc1ccccc1 [3b, Phenyl (E)-2-(2-isonicotinoylhydrazineylidene)propanoate]	–	–	> 1000	8 (≈ 2.27 µg/mL)	8 (≈ 2.27 µg/mL)	8 (≈ 2.27 µg/mL)	0.125 (≈ 0.0354 µg/mL)	0.25 (≈ 0.0708 µg/mL)	> 250	> 250	186 to 189	–
C/C(=N\NC(=O)c1ccncc1)C(=O)Oc1ccc(C)cc1 [3c, p-Tolyl (E)-2-(2-isonicotinoylhydrazineylidene)propanoate]	–	–	> 1000	8 (≈ 2.38 µg/mL)	8 (≈ 2.38 µg/mL)	8 (≈ 2.38 µg/mL)	≤ 0.25	0.5 (≈ 0.149 µg/mL)	> 250	> 250	168 to 170	–
COc1ccc(OC(=O)/C(C)=N/NC(=O)c2ccncc2)cc1 [3d, 4-Methoxyphenyl (E)-2-(2-isonicotinoylhydrazineylidene)propanoate]	–	–	> 1000	4 (≈ 1.25 µg/mL)	8 (≈ 2.51 µg/mL)	8 (≈ 2.51 µg/mL)	0.25 (≈ 0.0783 µg/mL)	0.25 (≈ 0.0783 µg/mL)	500 (≈ 157 µg/mL)	1000 (≈ 313 µg/mL)	169 to 172	–
C/C(=N\NC(=O)c1ccncc1)C(=O)Oc1ccc(F)cc1 [3f, 4-Fluorophenyl (E)-2-(2-isonicotinoylhydrazineylidene)propanoate]	–	–	> 1000	2 (≈ 0.603 µg/mL)	4 (≈ 1.21 µg/mL)	4 (≈ 1.21 µg/mL)	0.25 (≈ 0.0753 µg/mL)	0.5 (≈ 0.151 µg/mL)	500 (≈ 151 µg/mL)	500 (≈ 151 µg/mL)	174.1 to 177.2	–
C/C(=N\NC(=O)c1ccncc1)C(=O)Oc1ccc(Cl)cc1 [3g, 4-Chlorophenyl (E)-2-(2-isonicotinoylhydrazineylidene)propanoate]	–	–	> 1000	4 (≈ 1.27 µg/mL)	8 (≈ 2.54 µg/mL)	16 (≈ 5.08 µg/mL)	≤ 0.125	≤ 0.125	500 (≈ 159 µg/mL)	1000 (≈ 318 µg/mL)	184 to 186.1	–
C/C(=N\NC(=O)c1ccncc1)C(=O)Oc1ccc(Br)cc1 [3h, 4-Bromophenyl (E)-2-(2-isonicotinoylhydrazineylidene)propanoate]	–	–	> 1000	8 (≈ 2.9 µg/mL)	8 (≈ 2.9 µg/mL)	16 (≈ 5.79 µg/mL)	≤ 0.125	0.25 (≈ 0.0905 µg/mL)	250 (≈ 90.5 µg/mL)	500 (≈ 181 µg/mL)	190 to 192	MIC [1, 20]: 8 to 16 µM (≈ 2.9 to 5.79 µg/mL)
C/C(=N\NC(=O)c1ccncc1)C(=O)OCc1ccncc1 [3n, Pyridin-4-ylmethyl (E)-2-(2-isonicotinoylhydrazineylidene)propanoate]	–	–	> 1000	8 (≈ 2.39 µg/mL)	16 (≈ 4.77 µg/mL)	16 (≈ 4.77 µg/mL)	0.5 (≈ 0.149 µg/mL)	1 (≈ 0.298 µg/mL)	≥ 1000	≥ 1000	126 to 128	MIC [1, 20]: 8 to 16 µM (≈ 2.39 to 4.77 µg/mL); MIC ([2]; Mycobacterium tuberculosis, H37RV, 504 h, 14 and 21 d, read-out: MIC for Mtb.): 0.5 to 1 µM (≈ 0.149 to 0.298 µg/mL)
CC(=O)Nc1ccc(OC(=O)C(C)=NNC(=O)c2ccncc2)cc1 [3p, 4-Acetamidophenyl 2-(2-isonicotinoylhydrazineylidene)propanoate]	–	–	> 1000	8 (≈ 2.72 µg/mL)	16 (≈ 5.45 µg/mL)	16 (≈ 5.45 µg/mL)	0.25 (≈ 0.0851 µg/mL)	0.5 (≈ 0.17 µg/mL)	1000 (≈ 340 µg/mL)	1000 (≈ 340 µg/mL)	–	MIC [1, 20]: 8 to 16 µM (≈ 2.72 to 5.45 µg/mL)
C/C(=N\NC(=O)c1ccncc1)C(=O)OCCn1c([N+](=O)[O-])cnc1C [3q, 2-(2-Methyl-5-nitro-1H-imidazol-1-yl)ethyl (E)-2-(2 isonicotinoylhydrazineylidene)propanoate]	–	–	> 1000	2 (≈ 0.721 µg/mL)	4 (≈ 1.44 µg/mL)	4 (≈ 1.44 µg/mL)	0.25 (≈ 0.0901 µg/mL)	0.5 (≈ 0.18 µg/mL)	500 (≈ 180 µg/mL)	1000 (≈ 360 µg/mL)	123 to 125.7	–
CCSC(=O)/C(C)=N/NC(=O)c1ccncc1 [3r, S-Ethyl (E)-2-(2-isonicotinoylhydrazineylidene)propanethioate]	–	–	> 1000	1 (≈ 0.251 µg/mL)	2 (≈ 0.503 µg/mL)	4 (≈ 1.01 µg/mL)	0.25 (≈ 0.0628 µg/mL)	0.25 (≈ 0.0628 µg/mL)	250 (≈ 62.8 µg/mL)	500 (≈ 126 µg/mL)	158 to 160	–
Oc1ccc(Oc2ccccc2)cc1 [4-phenoxyphenol, reference compound]	64 (≈ 11.9 µg/mL)	64 (≈ 11.9 µg/mL)	–	–	–	–	–	–	–	–	–	MIC [1, 5]: 32 µM (≈ 5.96 µg/mL); MIC [1, 6]: 64 µM (≈ 11.9 µg/mL); MIC [1, 7]: 125 µM (≈ 23.3 µg/mL); MIC [3, 10]: 250 µM (≈ 46.6 µg/mL); MIC [3, 11]: 500 µM (≈ 93.1 µg/mL)
Cc1ccc(C(C)C)cc1O [Carvacrol, reference compound]	125 (≈ 18.8 µg/mL)	250 (≈ 37.6 µg/mL)	–	–	–	–	–	–	–	–	–	MIC [1, 12]: 125 µM (≈ 18.8 µg/mL); MIC [1, 21]: 250 µM (≈ 37.6 µg/mL); MIC [1, 22]: 500 µM (≈ 75.1 µg/mL); MIC [3, 23]: 250 µM (≈ 37.6 µg/mL); MIC [3, 24]: 500 µM (≈ 75.1 µg/mL)
NNC(=O)c1ccncc1 [INH 1, Isoniazid, reference compound]	–	–	> 1000	8 (≈ 1.1 µg/mL)	8 (≈ 1.1 µg/mL)	–	1 (≈ 0.137 µg/mL)	1 (≈ 0.137 µg/mL)	> 250	> 250	–	MIC [1, 5]: 4 µM (≈ 0.549 µg/mL); MIC [1, 6]: 8 µM (≈ 1.1 µg/mL); MIC [1, 22]: 16 µM (≈ 2.19 µg/mL); MIC [1, 7]: 8 µM (≈ 1.1 µg/mL); MIC ([2]; 14 d incubation, precursors, Table 2, read-out: MIC Mtb. 331/88 14 d): 1 µM (≈ 0.137 µg/mL); MIC ([2]; 21 d incubation, precursors, Table 2, read-out: MIC Mtb. 331/88 21 d): 1 µM (≈ 0.137 µg/mL); MIC ([3]; 14 d incubation, precursors, Table 2, read-out: MIC M. avium 330/88 14 d): >250 µM; MIC ([3]; 21 d incubation, precursors, Table 2, read-out: MIC M. avium 330/88 21 d): >250 µM
Cc1ncc([N+](=O)[O-])n1CCO [Metronidazole, reference compound]	> 1000	> 1000	–	–	–	–	–	–	–	–	–	MIC [1, 5]: 1000 µM (≈ 171 µg/mL); MIC [1, 6]: > 1000 µM; MIC [1, 7]: > 1000 µM; MIC [3, 10]: > 1000 µM; MIC [3, 11]: > 1000 µM
CC(=O)Nc1ccc(O)cc1 [Paracetamol, reference compound]	> 1000	> 1000	–	–	–	–	–	–	–	–	–	MIC [3, 10]: > 1000 µM; MIC [3, 11]: > 1000 µM
Oc1cccc2cccnc12 [Quinolin-8-ol, reference compound]	8 (≈ 1.16 µg/mL)	8 (≈ 1.16 µg/mL)	–	–	–	–	–	–	–	–	–	MIC [1, 12]: 16 µM (≈ 2.32 µg/mL); MIC [1, 21]: 32 µM (≈ 4.65 µg/mL); MIC [1, 22]: 32 µM (≈ 4.65 µg/mL); MIC [3, 23]: 64 µM (≈ 9.29 µg/mL); MIC [3, 24]: 64 µM (≈ 9.29 µg/mL)
Cc1ccc(C(C)C)c(O)c1 [Thymol, reference compound]	64 (≈ 9.61 µg/mL)	125 (≈ 18.8 µg/mL)	–	–	–	–	–	–	–	–	–	MIC [1, 12]: 125 µM (≈ 18.8 µg/mL); MIC [1, 6]: 250 µM (≈ 37.6 µg/mL); MIC [1, 7]: 500 µM (≈ 75.1 µg/mL); MIC [3, 10]: 250 µM (≈ 37.6 µg/mL); MIC [3, 11]: 500 µM (≈ 75.1 µg/mL)
Oc1cc(Cl)ccc1Oc1ccc(Cl)cc1Cl [Triclosan, 5-chloro-2-(2,4-dichlorophenoxy)phenol, reference compound]	32 (≈ 9.27 µg/mL)	32 (≈ 9.27 µg/mL)	–	–	–	–	–	–	–	–	–	MIC [1, 12]: 16 µM (≈ 4.63 µg/mL); MIC [1, 21]: 32 µM (≈ 9.27 µg/mL); MIC [1, 22]: 32 µM (≈ 9.27 µg/mL); MIC [3, 23]: 64 µM (≈ 18.5 µg/mL); MIC [3, 24]: 64 µM (≈ 18.5 µg/mL)
